Results as given in the supplement of paper PMC10307832.

Key:
Experiment in all cases: relative viability (nuclei count vs DMSO), 5 days (fraction); higher = more cells survive
[1] = test system: LOU-NH91
In short: (§1)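 The day after seeding in 1536-well plates, lung cancer cell lines were treated by pin tool with a single drug, or with a fixed anchor-drug dose together with five library-drug doses (not always all listed) in √10 steps. After 5 days, a combined fix-and-stain solution (final 0.05% Triton X-100, 1% formaldehyde, 1 ug/ml Hoechst) was added. Nuclei counted on 4× images gave relative viability as treated counts over vehicle counts, reported as the median of duplicate plates.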

[2] = test system: HCC-366
In short: as §1

[3] = test system: HCC-44
In short: as §1

[4] = test system: Calu-6
In short: as §1

[5] = test system: NCI-H1299
In short: as §1

[6] = test system: NCI-H1437
In short: as §1

[7] = test system: IA-LM
In short: as §1

[8] = test system: NCI-H3122
In short: as §1

[9] = test system: NCI-H2085
In short: as §1

[10] = test system: EBC-1
In short: as §1

[11] = test system: A549
In short: as §1

[12] = test system: NCI-H1703
In short: as §1

O=c1cc(-c2cccc3c2Sc2ccccc2S3)oc(N2CCOCC2)c1 + CC1(C)CCC(c2ccc(Cl)cc2)=C(CN2CCN(c3ccc(C(=O)NS(=O)(=O)c4ccc(N[C@H](CCN5CCOCC5)CSc5ccccc5)c(S(=O)(=O)C(F)(F)F)c4)cc3)CC2)C1 [Navitoclax] (partner 0.5 µM)
relative viability ([1]; first compound 0.08 µM): 0.711
relative viability ([1]; first compound 0.253 µM): 0.68
relative viability ([1]; first compound 0.8 µM): 0.573
relative viability ([1]; first compound 2.53 µM): 0.59
relative viability ([1]; first compound 8 µM): 0.705
relative viability ([2]; first compound 0.08 µM): 0.987
relative viability ([2]; first compound 0.253 µM): 1.19
relative viability ([2]; first compound 0.8 µM): 1.07
relative viability ([2]; first compound 2.53 µM): 0.98
relative viability ([2]; first compound 8 µM): 0.996
relative viability ([3]; first compound 0.08 µM): 0.916
relative viability ([3]; first compound 0.253 µM): 1.2
relative viability ([3]; first compound 0.8 µM): 0.859
relative viability ([3]; first compound 2.53 µM): 0.96
relative viability ([3]; first compound 8 µM): 0.905
relative viability ([4]; first compound 0.08 µM): 0.818
relative viability ([4]; first compound 0.253 µM): 0.765
relative viability ([4]; first compound 0.8 µM): 0.968
relative viability ([4]; first compound 2.53 µM): 0.725
relative viability ([4]; first compound 8 µM): 0.858
relative viability ([5]; first compound 0.08 µM): 1.08
relative viability ([5]; first compound 0.253 µM): 1.08
relative viability ([5]; first compound 0.8 µM): 1.04
relative viability ([5]; first compound 2.53 µM): 1.04
relative viability ([5]; first compound 8 µM): 1.04
relative viability ([6]; first compound 0.08 µM): 1.08
relative viability ([6]; first compound 0.253 µM): 1.58
relative viability ([6]; first compound 0.8 µM): 1.09
relative viability ([6]; first compound 2.53 µM): 1.11
relative viability ([6]; first compound 8 µM): 1.39
relative viability ([7]; first compound 0.08 µM): 0.847
relative viability ([7]; first compound 0.253 µM): 1.06
relative viability ([7]; first compound 0.8 µM): 0.815
relative viability ([7]; first compound 2.53 µM): 0.856
relative viability ([7]; first compound 8 µM): 0.963
relative viability ([8]; first compound 0.08 µM): 1.04
relative viability ([8]; first compound 0.253 µM): 1.01
relative viability ([8]; first compound 0.8 µM): 1.03
relative viability ([8]; first compound 2.53 µM): 1.02
relative viability ([8]; first compound 8 µM): 1.03
relative viability ([9]; first compound 0.08 µM): 1.15
relative viability ([9]; first compound 0.253 µM): 1.31
relative viability ([9]; first compound 0.8 µM): 1.17
relative viability ([9]; first compound 2.53 µM): 1.05
relative viability ([9]; first compound 8 µM): 1.07
relative viability ([10]; first compound 0.08 µM): 0.401
relative viability ([10]; first compound 0.253 µM): 0.376
relative viability ([10]; first compound 0.8 µM): 0.401
relative viability ([10]; first compound 2.53 µM): 0.362
relative viability ([10]; first compound 8 µM): 0.335
relative viability ([11]; first compound 0.08 µM): 1.14
relative viability ([11]; first compound 0.253 µM): 1.51
relative viability ([11]; first compound 0.8 µM): 1.47
relative viability ([11]; first compound 2.53 µM): 1.13
relative viability ([11]; first compound 8 µM): 1.37
relative viability ([12]; first compound 0.253 µM): 1.22
relative viability ([12]; first compound 0.8 µM): 1.35
relative viability ([12]; first compound 2.53 µM): 1.05
relative viability ([12]; first compound 8 µM): 1.05

O=c1cc(N2CCOCC2)oc2c(-c3cccc4c3sc3ccccc34)cccc12 + CC(C)C[C@H](NC(=O)[C@H](Cc1ccccc1)NC(=O)c1cnccn1)B(O)O [Bortezomib] (partner 0.002 µM)
relative viability ([1]; first compound 0.01 µM): 0.448
relative viability ([1]; first compound 0.03162 µM): 0.487
relative viability ([1]; first compound 0.1 µM): 0.538
relative viability ([1]; first compound 0.3162 µM): 0.548
relative viability ([1]; first compound 1 µM): 0.457
relative viability ([2]; first compound 0.01 µM): 1.09
relative viability ([2]; first compound 0.03162 µM): 1.09
relative viability ([2]; first compound 0.1 µM): 1.03
relative viability ([2]; first compound 0.3162 µM): 1.06
relative viability ([2]; first compound 1 µM): 1.04
relative viability ([3]; first compound 0.01 µM): 0.889
relative viability ([3]; first compound 0.03162 µM): 0.875
relative viability ([3]; first compound 0.1 µM): 0.906
relative viability ([3]; first compound 0.3162 µM): 0.881
relative viability ([3]; first compound 1 µM): 0.896
relative viability ([4]; first compound 0.01 µM): 1.04
relative viability ([4]; first compound 0.03162 µM): 1.05
relative viability ([4]; first compound 0.1 µM): 1.01
relative viability ([4]; first compound 0.3162 µM): 0.969
relative viability ([4]; first compound 1 µM): 1.03
relative viability ([5]; first compound 0.01 µM): 1.04
relative viability ([5]; first compound 0.03162 µM): 1.01
relative viability ([5]; first compound 0.1 µM): 0.984
relative viability ([5]; first compound 0.3162 µM): 1.03
relative viability ([5]; first compound 1 µM): 1.08
relative viability ([6]; first compound 0.01 µM): 0.493
relative viability ([6]; first compound 0.03162 µM): 0.515
relative viability ([6]; first compound 0.1 µM): 0.477
relative viability ([6]; first compound 0.3162 µM): 0.527
relative viability ([6]; first compound 1 µM): 0.57
relative viability ([7]; first compound 0.01 µM): 0.837
relative viability ([7]; first compound 0.03162 µM): 0.904
relative viability ([7]; first compound 0.1 µM): 0.784
relative viability ([7]; first compound 0.3162 µM): 0.896
relative viability ([7]; first compound 1 µM): 0.74
relative viability ([8]; first compound 0.01 µM): 1.02
relative viability ([8]; first compound 0.03162 µM): 0.907
relative viability ([8]; first compound 0.1 µM): 1.02
relative viability ([8]; first compound 0.3162 µM): 0.947
relative viability ([8]; first compound 1 µM): 1.02
relative viability ([9]; first compound 0.01 µM): 0.995
relative viability ([9]; first compound 0.03162 µM): 1.01
relative viability ([9]; first compound 0.1 µM): 1.03
relative viability ([9]; first compound 0.3162 µM): 1.06
relative viability ([9]; first compound 1 µM): 0.967
relative viability ([10]; first compound 0.01 µM): 0.569
relative viability ([10]; first compound 0.03162 µM): 0.538
relative viability ([10]; first compound 0.1 µM): 0.505
relative viability ([10]; first compound 0.3162 µM): 0.555
relative viability ([10]; first compound 1 µM): 0.49
relative viability ([12]; first compound 0.01 µM): 0.333
relative viability ([12]; first compound 0.03162 µM): 0.274
relative viability ([12]; first compound 0.1 µM): 0.356
relative viability ([12]; first compound 0.3162 µM): 0.403
relative viability ([12]; first compound 1 µM): 0.296
